Legend:
Type in all cases: in vivo
[1] = test system: Aedes aegypti; assay: Insecticide effectiveness in the vapour phase against mosquitoes, impregnated paper unit in 20 m^3 room (Example 5); settings: 5 mg/unit; for % mortality 24 h: 24th hour from start of test; for % Knock-down 8 h: at end of 8th hour; for Knock-down time KT10 / Knock-down time KT50 / Knock-down time KT90: average of 3 cages
Procedure: (§1) Test units consisting of a paper support 20 cm×10 cm in size were impregnated with the compound of example 3 and, for comparative purposes, with the reference compounds transfluthrin and metofluthrin, at an amount of 5.00 mg/unit for each compound (pure).
(§2) Using a common laboratory stand, the test unit was placed at a height of about 30 cm from the ground along one side of a 20 m^3 room (L 3.00 m×D 2.49 m×H 2.69 m). In order to homogenize the insecticidal air within the room, a small electric fan was placed on the floor diagonal to the surface of the unit, in the is nearest corner at a distance of about 50 cm from the unit. Three metal cages (L 8.4 cm×Ø 8.0 cm×mesh 1.0 mm) for every mosquito species, each containing 20 3-4 day old individuals of mixed sex, were placed along the other three sides of the room, at a height of 1.80 m from the ground and at a distance of 0.45 m from the respective walls. During the test the room was kept closed and temperature and humidity were controlled (T 23-26° C., RH 49-61%).
(§3) The fan was switched on and left on for 8 continuous hours. The times needed to reach 10%, 50% and 90% insect knock-down (KT10, KT50 and KT90, respectively) were recorded.
(§4) Every 2 hours and up to the 6th hour after the fan was switched on, new cages were introduced containing insects (set of 3 cages for each species).
(§5) At the end of the 8th hour, the percentage of insects knocked down in all the cages was determined, then the insects were removed from the room and transferred into an uncontaminated atmosphere within closed containers containing a sugary solution. The percentage mortality was recorded at the 24th hour from the start of the test.
(§6) The results obtained are summarized in tables 1 and 2 and the data are averages for the 3 cages.

[2] = test system: Culex quinquefasciatus; assay: as above; settings: 5 mg/unit; for % mortality 24 h: 24th hour from start of test; for % Knock-down 8 h: at end of 8th hour; for Knock-down time KT10 / Knock-down time KT50 / Knock-down time KT90: average of 3 cages
Procedure: as §1, §2, §3, §4, §5, §6

[3] = test system: Blattella germanica; assay: Effectiveness of residual insecticide on surfaces (glazed tiles) against cockroaches (Example 6); settings: 50 mg/m^2 on glazed tiles, 24 h exposure
Procedure: Solutions of the compound of example 3 in acetone and, for comparison, of the reference compounds Transfluthrin and Metofluthrin were applied from a distance of 12 cm onto glazed tiles (Ostara model, 15×15 cm=225 cm^2) by means of a suitable glass sprayer, so as to obtain an applied amount of pure compound equal to 50 mg/m^2. After treatment the tiles were transferred to and maintained in a closed test room at controlled temperature and humidity (24-25° C., RH 50-60%). Glass rings (H 5.5 cm×Ø 9.5 cm), with their internal surface treated with talc, and each containing 5 cockroaches, were positioned at the centre of the tiles for each of the assessment times of 24 hours, 3, 7, 10 and 14 days following treatment. For each assessment day, the insects were maintained on the surface for 24 hours and the time (hours, minutes) necessary to attain 100% knock-down followed by death, or percentage knock-down at the end of 24 hours, were recorded.

[4] = test system: Aedes aegypti; assay: Insecticide effectiveness in the vapour phase against mosquitoes, impregnated paper unit in 20 m^3 room (Example 9); settings: 5 mg/unit; for % mortality 24 h: 24th hour from start of test; for % Knock-down 8 h: at end of 8th hour; for Knock-down time KT10 / Knock-down time KT50 / Knock-down time KT90: average of 3 cages
Procedure: as §2, with “Test units consisting of a paper support 20 cm×10 cm in size were impregnated with the compound of examples 3, 7 and 8 and, for comparative purposes, with the reference compounds transfluthrin and metofluthrin, at an amount of 5.00 mg/unit for each compound (pure). Using” for “Using”, “the” for “the is”, “49-61%). The fan was switched on and left on for 8 continuous hours. The times needed to reach 10%, 50% and 90% insect knock-down (KT10, KT50 and KT90, respectively) were recorded.” for “49-61%).”
as §4, §5, §6

[5] = test system: Culex quinquefasciatus; assay: as above; settings: 5 mg/unit; for % mortality 24 h: 24th hour from start of test; for % Knock-down 8 h: at end of 8th hour; for Knock-down time KT10 / Knock-down time KT50 / Knock-down time KT90: average of 3 cages
Procedure: as §2, with “Test units consisting of a paper support 20 cm×10 cm in size were impregnated with the compound of examples 3, 7 and 8 and, for comparative purposes, with the reference compounds transfluthrin and metofluthrin, at an amount of 5.00 mg/unit for each compound (pure). Using” for “Using”, “the” for “the is”, “49-61%). The fan was switched on and left on for 8 continuous hours. The times needed to reach 10%, 50% and 90% insect knock-down (KT10, KT50 and KT90, respectively) were recorded.” for “49-61%).”
as §4, §5, §6

## CC1(C)[C@H](C=C(Cl)Cl)[C@H]1C(=O)OCc1c(F)c(F)cc(F)c1F [Transfluthrin, transfluthrin]
[1]; insect exposure after 0 hours
  % mortality 24 h: 100%
  % Knock-down 8 h: 100%
  Knock-down time KT10: 21 min
  Knock-down time KT50: 26 min
  Knock-down time KT90: 36 min
[1]; insect exposure after 2 hours
  % mortality 24 h: 100%
  % Knock-down 8 h: 100%
  Knock-down time KT10: 5 min
  Knock-down time KT50: 9 min
  Knock-down time KT90: 12 min
[1]; insect exposure after 4 hours
  % mortality 24 h: 100%
  % Knock-down 8 h: 100%
  Knock-down time KT10: 4 min
  Knock-down time KT50: 7 min
  Knock-down time KT90: 10 min
[2]; insect exposure after 0 hours
  % mortality 24 h: 100%
  % Knock-down 8 h: 100%
  Knock-down time KT10: 27 min
  Knock-down time KT50: 37 min
  Knock-down time KT90: 44 min
[2]; insect exposure after 2 hours
  % mortality 24 h: 100%
  % Knock-down 8 h: 100%
  Knock-down time KT10: 7 min
  Knock-down time KT50: 14 min
  Knock-down time KT90: 20 min
[2]; insect exposure after 4 hours
  % mortality 24 h: 100%
  % Knock-down 8 h: 100%
  Knock-down time KT10: 9 min
  Knock-down time KT50: 17 min
  Knock-down time KT90: 22 min
[3]; 1 day after treatment
  percentage knock-down after 24 hours: 60%
[3]; 3 days after treatment
  percentage knock-down after 24 hours: 24 h 0%
[3]; 7 days after treatment
  percentage knock-down after 24 hours: 24 h 0%
[4]; insect exposure after 0 hours
  % mortality 24 h: 100%
  % Knock-down 8 h: 100%
  Knock-down time KT10: 21 min
  Knock-down time KT50: 26 min
  Knock-down time KT90: 35 min
[4]; insect exposure after 2 hours
  % mortality 24 h: 100%
  % Knock-down 8 h: 100%
  Knock-down time KT10: 7 min
  Knock-down time KT50: 9 min
  Knock-down time KT90: 12 min
[4]; insect exposure after 4 hours
  % mortality 24 h: 100%
  % Knock-down 8 h: 100%
  Knock-down time KT10: 6 min
  Knock-down time KT50: 9 min
  Knock-down time KT90: 14 min
[5]; insect exposure after 0 hours
  % mortality 24 h: 100%
  % Knock-down 8 h: 100%
  Knock-down time KT10: 31 min
  Knock-down time KT50: 42 min
  Knock-down time KT90: 55 min
[5]; insect exposure after 2 hours
  % mortality 24 h: 100%
  % Knock-down 8 h: 100%
  Knock-down time KT10: 16 min
  Knock-down time KT50: 25 min
  Knock-down time KT90: 34 min
[5]; insect exposure after 4 hours
  % mortality 24 h: 100%
  % Knock-down 8 h: 100%
  Knock-down time KT10: 11 min
  Knock-down time KT50: 16 min
  Knock-down time KT90: 24 min
